Data on 17 molecules can be found in patent publication US11530197B2, “Analogs for the treatment of disease” (Insilico Medicine IP Limited, priority 2021, dated 2022).

By IC50 is commonly meant the midpoint of a concentration-inhibition curve.

Data set [1] is described as follows: Metabolic stability in human liver microsomes.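 Note: NADPH-supplemented human liver microsomes sampled at 0, 5, 10, 20, 30 and 60 min, parent compound quantified by LC-MS/MS, intrinsic clearance from first-order decay, no-cofactor incubation as control.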 It counts as in vitro ADME. Particulars: LM Clint; 1 μM test compound, 0.5 mg protein/mL microsome, 37° C., up to 60 min. For orientation: Microsomes from liver hold many membrane-bound enzymes, among them those of drug oxidation.
Procedure: Test Compound an Control Working Solution Preparation: Working solution: 5 μL of compound and control stock solution (10 mM in dimethyl sulfoxide (DMSO)) were diluted with 495 µL of acetonitrile (ACN) (intermediate solution concentration: 100 μM, 99% ACN).
Preparation Procedure: The appropriate amount of NADPH powder was weighed and diluted into a 10 mM MgCl2 solution (working solution concentration: 10 unit/mL; final concentration in reaction system: 1 unit/mL).
Preparation Procedure: The appropriate concentrations of microsome working solutions were prepared in 100 mM potassium phosphate buffer.
Stop Solution Preparation: Cold (4° C.) acetonitrile (ACN) containing 200 ng/mL tolbutamide and 200 ng/mL labetalol as internal standards (IS) was used as the stop solution.
Dilute liver microsomes to 0.56 mg/mL in 100 mM phosphate buffer.
Transfer 445 μL microsome working solutions (0.56 mg/mL) into pre-warmed ‘Incubation’ plates T60 and NCF60, Then pre-incubate ‘Incubation’ plates T60 and NCF60 for 10 min at 37° C. with constant shaking. Transfer 54 μL liver microsomes to blank plate, then add 6 μL NAPDH cofactor to blank plate, and then add 180 μL quenching solution to blank plate.
2.5.4 Add 5 μL compound working solution (100 μM) into ‘incubation’ plates (T60 and NCF60) containing microsomes and mix 3 times thoroughly.
For the NCF60 plate, add 50 μL of buffer and mix 3 times thoroughly. Start timing; plate will be incubated at 37° C. for 60 min while shaking.
For the T60 plate, mix 3 times thoroughly, and immediately remove 54 μL mixture for the 0-min time point to ‘Quenching’ plate. Then add 44 μL NAPDH cofactor to incubation plate (T60). Start timing; plate will be incubated at 37° C. for 60 min while shaking.
At 5, 10, 20, 30, and 60 min, add 180 μL quenching solution to ‘Quenching’ plates, mix once, and serially transfer 60 μL sample from T60 plate per time point to ‘Quenching’ plates.
For NCF60: mix once, and transfer 60 μL sample from the NCF60 incubation to ‘Quenching’ plate containing quenching solution at the 60-min time point.
All sampling plates are shaken for 10 min, then centrifuged at 4000 rpm for 20 minutes at 4° C.
Transfer 80 μL supernatant into 240 μL HPLC water, and mix by plate shaker for 10 min.
Each bioanalysis plate was sealed and shaken for 10 minutes prior to LC-MS/MS analysis.
The equation of first order kinetics was used to calculate T½ and Intrinsic clearance (CLint mic) in (L/min/mg).
Another data set has as its target TNIK(h) (Homo sapiens (Human), UniProt Q9UKE5). The data set is described as follows: TNIK Human STE Kinase Enzymatic Radiometric Assay.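 Note: remaining kinase activity relative to DMSO control, compound added without preincubation, reaction started with ATP, IC50 from variable-slope sigmoidal dose-response fit.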 It counts as biochemical.
The next data set has as its target MAP4K4 (h) (Homo sapiens (Human), UniProt O95819). Briefly: MAP4K4 Human STE Kinase Enzymatic Radiometric Assay.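 Note: kinase activity remaining relative to the DMSO control, IC50 derived from sigmoidal variable-slope curve fits, no preincubation of compound with enzyme before ATP start.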 It counts as biochemical. To be noted: ATP 200 μM; 40 min at room temperature.
In data set [2] the test system is Collagen I (COL1A1) in LX-2 cells. Briefly: Collagen and Alpha-SMA in LX-2 (Western blot after TGF-β stimulation).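 Note: cells serum-starved in 0.4% FBS before treatment, lysates analysed by Western blot, DMSO-only wells as blank and TGF-β alone as maximal induction control, three independent experiments.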 Particulars: Homo sapiens, 4 ng/ml TGF-β for 48 hours, Collagen I normalized to GAPDH. It counts as cell-based.
Procedure: 3 ml of 0.25% Trypsin-EDTA solution was then added and cells were incubated at 37° C. for 5 min for each T150-flask. 7 ml of culture medium was added to stop trypsinization. The cells were centrifuged at 300×g for 5 min. Supernatant medium was discarded and cells were re-suspended with fresh culture medium. The cells were counted with Cell viability analyzer. 5.0E+05 cells/well were seeded into 6-well plate containing 2.0 mL of culture medium. The cells were cultured overnight at 37° C. The next day, the complete medium was replaced with medium with 0.4% FBS for starvation. […] In parallel, medium containing only DMSO and TGF-β was used as blank control and positive control, respectively. TGF-β induction was used as maximum induction positive control. The culture medium was discarded at the end of induction. Cells were washed once using ice-cold DPBS. RIPA buffer was added to lyse the cells for 20 min. The cells were then scraped off the culture plate, collected in a tube and centrifuged. The supernatant was stored at −80° C. The total amount of protein in the lysate was determined using BCA Protein Assay kit. The cell treatment of fibrosis assay was performed in three independent experiments for each compound.
All the lysate samples were adjusted to the same protein concentration with RIPA buffer after BCA assay. […] The denatured samples were used for electrophoresis. Western blot was performed according to the standard protocols. The same volume of protein was loaded onto 4-12% Bis-Tris gel. Duplicate lysates of samples were loaded onto two gels. The gels were run for 0.5 h at 80 V and 120 V for another 1 h. When the electrophoresis was completed, the gels containing target protein Collagen I (COL1A1) were transferred onto NC membrane using Trans-Blot Electrophoretic Transfer Cell for 90 min at 100 V. The iBlot™ 2 Gel Transfer Device was used to transfer α-SMA and GAPDH at 20 V for 7 min. All the membranes were blocked in TBST buffer with 5% nonfat dry milk in at RT for 1 h and then incubated with primary antibody anti-COL1A1 and anti-α-SMA in TBST buffer containing 5% BSA at 4° C. overnight. For GAPDH detection, the membrane with α-SMA immunoblots were stripped with Restore™ Western Blot Stripping Buffer after detection. And the membranes were re-blocked and then re-probed with primary antibody anti-GAPDH antibody at room temperature (RT) for 2 h. After incubation with primary antibodies, membranes were washed with TBST, then incubated with the secondary antibody at RT for 1 h. Blots were visualized using the instrument Image Quant LAS-4000. The chemiluminescent signals derived from ECL Western blotting reagents were captured. The bands integrated intensity from 16-bit blot images was used for quantitation with the software (1D component of ImageQuant TL). The quantification raw data of the two duplicated gels was obtained from ImageQuant TL. Collagen I and α-SMA proteins expression level was normalized to GAPDH for each gel. The average normalization data of the two duplicated gels was calculated and applied to calculate IC50 using an equation for a sigmoidal dose response (variable slope) of GraphPad™ Prism software. The equation is Y=Bottom+(Top-Bottom)/(1+10^((Log IC50−X)*Hillslope). Note: X is the logarithm of compound concentration, Y is the average normalization data
The mark [3] stands for this setting: ATP 70 μM, 40 min at room temperature, read-out: TNIK (IC50).

Where two headings read alike, the source gives them in different places. A value given as a limit tells only on which side of the number the result lay.

Chain of TNIK(h) (Q9UKE5 whole entry): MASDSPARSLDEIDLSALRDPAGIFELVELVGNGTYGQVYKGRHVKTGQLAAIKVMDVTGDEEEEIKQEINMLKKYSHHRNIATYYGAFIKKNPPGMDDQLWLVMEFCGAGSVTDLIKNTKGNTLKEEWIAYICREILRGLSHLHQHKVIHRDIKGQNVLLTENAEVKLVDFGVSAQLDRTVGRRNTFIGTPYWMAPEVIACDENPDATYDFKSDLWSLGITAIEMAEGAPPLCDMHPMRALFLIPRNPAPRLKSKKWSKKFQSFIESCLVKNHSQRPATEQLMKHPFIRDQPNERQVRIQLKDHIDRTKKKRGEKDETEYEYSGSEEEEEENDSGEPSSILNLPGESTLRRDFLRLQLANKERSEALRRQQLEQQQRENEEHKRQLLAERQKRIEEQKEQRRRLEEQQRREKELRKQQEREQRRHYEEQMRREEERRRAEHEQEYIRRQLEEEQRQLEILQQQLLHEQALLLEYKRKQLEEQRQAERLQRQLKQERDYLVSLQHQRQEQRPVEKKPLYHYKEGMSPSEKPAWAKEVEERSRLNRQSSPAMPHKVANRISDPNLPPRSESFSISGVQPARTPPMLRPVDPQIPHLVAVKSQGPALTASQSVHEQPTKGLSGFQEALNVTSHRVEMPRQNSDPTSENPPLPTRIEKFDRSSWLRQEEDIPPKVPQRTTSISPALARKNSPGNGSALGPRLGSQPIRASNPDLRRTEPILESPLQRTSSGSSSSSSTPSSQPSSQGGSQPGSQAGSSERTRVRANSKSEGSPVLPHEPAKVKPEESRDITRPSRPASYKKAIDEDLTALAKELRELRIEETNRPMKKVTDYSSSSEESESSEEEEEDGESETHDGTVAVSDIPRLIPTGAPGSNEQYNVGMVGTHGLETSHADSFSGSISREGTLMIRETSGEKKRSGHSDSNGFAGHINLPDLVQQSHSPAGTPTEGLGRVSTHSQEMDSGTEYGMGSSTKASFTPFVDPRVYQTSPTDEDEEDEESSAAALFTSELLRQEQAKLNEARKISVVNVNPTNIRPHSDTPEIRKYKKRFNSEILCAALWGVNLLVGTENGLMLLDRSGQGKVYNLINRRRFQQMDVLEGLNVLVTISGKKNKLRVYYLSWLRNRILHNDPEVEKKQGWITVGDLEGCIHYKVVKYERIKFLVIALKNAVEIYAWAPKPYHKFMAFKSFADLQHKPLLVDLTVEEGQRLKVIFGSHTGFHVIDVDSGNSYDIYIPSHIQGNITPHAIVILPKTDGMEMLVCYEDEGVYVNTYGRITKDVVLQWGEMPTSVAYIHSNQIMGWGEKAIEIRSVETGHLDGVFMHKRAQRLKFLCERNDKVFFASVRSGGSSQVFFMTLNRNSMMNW
Chain of MAP4K4 (h) (O95819 whole entry): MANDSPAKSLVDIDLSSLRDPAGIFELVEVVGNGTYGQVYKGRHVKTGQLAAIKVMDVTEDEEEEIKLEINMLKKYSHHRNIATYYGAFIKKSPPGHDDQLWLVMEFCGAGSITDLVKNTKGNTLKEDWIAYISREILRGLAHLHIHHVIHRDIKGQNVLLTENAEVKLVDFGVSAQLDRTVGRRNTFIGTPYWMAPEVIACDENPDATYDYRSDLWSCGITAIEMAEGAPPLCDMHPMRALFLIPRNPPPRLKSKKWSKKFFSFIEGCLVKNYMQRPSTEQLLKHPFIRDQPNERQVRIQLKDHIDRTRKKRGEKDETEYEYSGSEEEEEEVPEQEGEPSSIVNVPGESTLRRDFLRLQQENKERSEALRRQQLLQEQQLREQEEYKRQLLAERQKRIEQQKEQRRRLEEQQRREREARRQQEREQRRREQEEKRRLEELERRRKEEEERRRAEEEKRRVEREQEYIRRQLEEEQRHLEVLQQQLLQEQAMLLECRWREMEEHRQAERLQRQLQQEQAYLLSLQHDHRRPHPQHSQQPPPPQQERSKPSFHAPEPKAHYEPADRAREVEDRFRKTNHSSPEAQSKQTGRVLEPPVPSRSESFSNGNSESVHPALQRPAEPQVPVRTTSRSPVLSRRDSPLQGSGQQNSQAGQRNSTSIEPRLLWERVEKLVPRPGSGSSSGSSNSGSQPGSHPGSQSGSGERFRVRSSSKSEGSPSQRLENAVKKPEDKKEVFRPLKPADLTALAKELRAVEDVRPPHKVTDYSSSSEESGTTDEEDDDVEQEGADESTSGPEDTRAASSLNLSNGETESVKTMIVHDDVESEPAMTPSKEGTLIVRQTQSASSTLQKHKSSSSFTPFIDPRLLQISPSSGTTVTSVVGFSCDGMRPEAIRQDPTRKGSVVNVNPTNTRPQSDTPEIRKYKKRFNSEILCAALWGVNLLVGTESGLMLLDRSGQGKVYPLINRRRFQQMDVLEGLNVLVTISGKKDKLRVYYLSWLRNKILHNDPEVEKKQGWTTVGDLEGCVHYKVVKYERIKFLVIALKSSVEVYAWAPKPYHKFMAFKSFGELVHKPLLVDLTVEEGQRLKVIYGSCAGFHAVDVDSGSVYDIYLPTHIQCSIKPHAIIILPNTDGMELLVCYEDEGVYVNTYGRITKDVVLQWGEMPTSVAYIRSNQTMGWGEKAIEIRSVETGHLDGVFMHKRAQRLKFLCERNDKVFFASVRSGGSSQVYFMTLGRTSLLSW
Procedure for MAP4K4 (h): (§1) The reaction is initiated by the addition of the Mg/ATP mix. After incubation for 40 minutes at room temperature, the reaction is stopped by the addition of phosphoric acid to a concentration of 0.5%.
INCUBATION: 40 min at Room temperature
COMPOUND DILUTION SCHEME: All compounds supplied were prepared to a working stock of 50× final assay concentration in 100% DMSO. Where appropriate, more concentrated stocks were diluted manually to 50× using 100% DMSO. Compounds supplied as powders were reconstituted to a 10 mM stock in 100% DMSO before further dilution to 50×.
ASSAY PROCEDURE: The required volume of the 50× stock of test compound was added to the assay before a reaction mix containing the enzyme and substrate was added. The reaction was initiated by the addition of ATP at the selected concentration. There was no pre-incubation of the compound with the enzyme/substrate mix prior to ATP addition.
Results are expressed as kinase activity remaining, as a percentage of the DMSO control. This is calculated using the following formula: Mean of Sample Counts−Mean of Blank Counts/Mean of Control Counts
(§2) For IC50 determinations, data are analyzed using XLFit version 5.3 (ID Business Solutions). Sigmoidal dose-response (variable slope) curves are fit based on the mean result for each test concentration using non-linear regression analysis. Where the top and/or bottom of the curve fall >10% out with 100 and 0, respectively, either or both of these limits may be constrained at 100 and 0, provided that the QC criterion on R2 is met.
Procedure for TNIK(h): as §1
INCUBATION: 40 min at Room temperature
COMPOUND DILUTION SCHEME: All compounds supplied were prepared to a working stock of 50× final assay concentration in 100% DMSO. Where appropriate, more concentrated stocks were diluted manually to 50× using 100% DMSO. Compounds supplied as powders were reconstituted to a 10 mM stock in 100% DMSO before further dilution to 50×. ASSAY PROCEDURE: The required volume of the 50× stock of test compound was added to the assay before a reaction mix containing the enzyme and substrate was added. The reaction was initiated by the addition of ATP at the selected concentration. There was no pre-incubation of the compound with the enzyme/substrate mix prior to ATP addition. […] Results are expressed as kinase activity remaining, as a percentage of the DMSO control. This is calculated using the following formula:
as §2

As for `CC(C)n1cnc(-c2ccc(F)cc2)c1-c1nc(C(=O)Nc2ccc(CCO)cc2)c[nH]1` [Compound 111, 5′-(4-fluorophenyl)-N-(4-(2-hydroxyethyl)phenyl)-3′-isopropyl-1H,3′H-[2,4′-biimidazole]-4-carboxamide], the “Human Liver Microsome (μM/min/mg)” value in data set [1] was “++ (10-100 μM/min/mg as ++)”. Besides, the IC50 on TNIK(h) (setting [3]) was 12 to 120 nM; on MAP4K4 (h) it was above 120 nM; in data set [2] it was 0.1 to 1 nM.

On to `CC(C)n1cnc(-c2ccc(F)cc2)c1-c1nc(C(=O)Nc2ccc(N(CCO)CCO)cc2)c[nH]1` [Compound 116, N-(4-(bis(2-hydroxyethyl)amino)phenyl)-5′-(4-fluorophenyl)-3′-isopropyl-1H,3′H-[2,4′-biimidazole]-4-carboxamide], for which the “Human Liver Microsome (μM/min/mg)” value in data set [1] is recorded as “+++ (1-10 μM/min/mg as +++)”. Moreover, the figures for the half-inhibitory concentration (IC50) (on TNIK(h) (setting [3]); on MAP4K4 (h); in data set [2]) were 12 to 120 nM, 12 to 120 nM and 0.1 to 1 nM, respectively.

Regarding `CC(C)n1cnc(-c2ccc(F)cc2)c1-c1nc(C(=O)Nc2ccc(N3CCN(CCO)CC3)cc2)c[nH]1` [Compound 117, 5′-(4-fluorophenyl)-N-(4-(4-(2-hydroxyethyl)piperazin-1-yl)phenyl)-3′-isopropyl-1H,3′H-[2,4′-biimidazole]-4-carboxamide], the “Human Liver Microsome (μM/min/mg)” value in data set [1] is “++ (10-100 μM/min/mg as ++)”. Besides, the IC50 on TNIK(h) (setting [3]) lay within 12 to 120 nM; on MAP4K4 (h), 12 to 120 nM; in data set [2] it was 0.1 to 1 nM.

For the molecule `CN1CCN(c2ccc(NC(=O)c3c[nH]c(-c4c(-c5ccc(F)cc5)ncn4CC(F)(F)F)n3)cc2)CC1` [Compound 120, 5′-(4-fluorophenyl)-N-(4-(4-methylpiperazin-1-yl)phenyl)-3′-(2,2,2-trifluoroethyl)-1H,3′H-[2,4′-biimidazole]-4-carboxamide], in data set [1], the “Human Liver Microsome (μM/min/mg)” value was “++ (10-100 μM/min/mg as ++)”. For the same molecule, the IC50 was 12 to 120 nM at TNIK(h) (setting [3]), above 120 nM against MAP4K4 (h) and below 0.1 nM in data set [2].

For the molecule `CC(C)n1cnc(-c2ccc(F)cc2)c1-c1ccc(C(=O)Nc2ccc(N3CCN(C)CC3)cc2)o1` [Compound 121, 5-(4-(4-fluorophenyl)-1-isopropyl-1H-imidazol-5-yl)-N-(4-(4-methylpiperazin-1-yl)phenyl)furan-2-carboxamide], in data set [1], the “Human Liver Microsome (μM/min/mg)” value is on record as “+ (>100 μM/min/mg as +)”. Moreover, the figures for the IC50 (on TNIK(h) (setting [3]); against MAP4K4 (h); in data set [2]) were 1 to 12 nM, 12 to 120 nM and below 0.1 nM, respectively.

Turning to `CC(C)n1cnc(-c2ccc(F)cc2)c1-c1ccc(C(=O)Nc2ccc(CCO)cc2)o1` [Compound 126, 5-(4-(4-fluorophenyl)-1-isopropyl-1H-imidazol-5-yl)-N-(4-(2-hydroxyethyl)phenyl)furan-2-carboxamide], in data set [1], the “Human Liver Microsome (μM/min/mg)” value is listed as “+ (>100 μM/min/mg as +)”. The IC50 is 12 to 120 nM on TNIK(h) (setting [3]), 12 to 120 nM on MAP4K4 (h) and 0.1 to 1 nM in data set [2].

Regarding `CC(C)n1cnc(-c2ccc(F)cc2)c1-c1cccc(C(=O)Nc2ccc(N3CCN(C)CC3)cc2)n1` [Compound 127], the “Human Liver Microsome (μM/min/mg)” value in data set [1] was “+ (>100 μM/min/mg as +)”. Also, the IC50 on TNIK(h) (setting [3]) lay in the range of 1 to 12 nM; against MAP4K4 (h) it was 1 to 12 nM; in data set [2], 0.1 to 1 nM.

Take `CC(C)n1cnc(-c2ccc(F)cc2)c1-c1cccc(C(=O)Nc2ccc(N3CCN(CCO)CC3)cc2)n1` [Compound 128]: the “Human Liver Microsome (μM/min/mg)” value in data set [1] is reported as “+ (>100 μM/min/mg as +)”. Also, the IC50 lay in the range of 1 to 12 nM on TNIK(h) (setting [3]), 1 to 12 nM on MAP4K4 (h) and 0.1 to 1 nM in data set [2].

`CN1CCN(c2ccc(NC(=O)c3c[nH]c(-c4c(-c5ccc(F)cc5)ncn4C(F)F)n3)cc2)CC1` [Compound 130, 3′-(difluoromethyl)-5′-(4-fluorophenyl)-N-(4-(4-methylpiperazin-1-yl)phenyl)-1H,3′H-[2,4′-biimidazole]-4-carboxamide]: the “Human Liver Microsome (μM/min/mg)” value in data set [1] is “++ (10-100 μM/min/mg as ++)”. The IC50 at TNIK(h) (setting [3]) was 12 to 120 nM; on MAP4K4 (h), above 120 nM; in data set [2], 0.1 to 1 nM.

On to `CC(C)n1cnc(-c2ccc(F)cc2)c1-c1cccc(C(=O)Nc2ccc(CCC(=O)O)cc2)n1` [Compound 131], for which the “Human Liver Microsome (μM/min/mg)” value in data set [1] was “+++ (1-10 μM/min/mg as +++)”. In addition, the figures for the IC50 (at TNIK(h) (setting [3]); against MAP4K4 (h); in data set [2]) were 1 to 12 nM, 12 to 120 nM and 0.1 to 1 nM, respectively.

On to `CC(C)n1cnc(-c2ccc(Cl)cc2)c1-c1nc(C(=O)Nc2ccc(N3CCN(CCO)CC3)cc2)c[nH]1` [Compound 139, 5′-(4-chlorophenyl)-N-(4-(4-(2-hydroxyethyl)piperazin-1-yl)phenyl)-3′-isopropyl-1H,3′H-[2,4′-biimidazole]-4-carboxamide], for which the “Human Liver Microsome (μM/min/mg)” value in data set [1] is recorded as “++ (10-100 μM/min/mg as ++)”. The values for the IC50 (at TNIK(h) (setting [3]); against MAP4K4 (h); in data set [2]) were 12 to 120 nM, above 120 nM and 0.1 to 1 nM, respectively.

Take `CC(C)n1cnc(-c2ccc(F)c(F)c2)c1-c1nc(C(=O)Nc2ccc(N3CCN(CCO)CC3)cc2)c[nH]1` [Compound 146, 5′-(3,4-difluorophenyl)-N-(4-(4-(2-hydroxyethyl)piperazin-1-yl)phenyl)-3′-isopropyl-1H,3′H-[2,4′-biimidazole]-4-carboxamide]: the “Human Liver Microsome (μM/min/mg)” value in data set [1] was “++ (10-100 μM/min/mg as ++)”. Also, the IC50 on TNIK(h) (setting [3]) is 12 to 120 nM; against MAP4K4 (h), above 120 nM; in data set [2] it was 0.1 to 1 nM.

With `CC(C)n1cnc(-c2ccc(F)c(F)c2)c1-c1nc(C(=O)Nc2ccc(N3CCN(C)CC3)cc2)c[nH]1` [Compound 156, 5′-(3,4-difluorophenyl)-3′-isopropyl-N-(4-(4-methylpiperazin-1-yl)phenyl)-1H,3′H-[2,4′-biimidazole]-4-carboxamide], in data set [1], the “Human Liver Microsome (μM/min/mg)” value was “++ (10-100 μM/min/mg as ++)”. The figures for the IC50 (at TNIK(h); on MAP4K4 (h); in data set [2]) were 12 to 120 nM, above 120 nM and below 0.1 nM, respectively.

In the case of `CN1CCN(c2ccc(NC(=O)c3c[nH]c(-c4c(-c5ccc(F)cc5)ncn4C4CCC(O)CC4)n3)cc2)CC1` (stereo not drawn) [Compound 172], the “Human Liver Microsome (μM/min/mg)” value in data set [1] was “+++ (1-10 μM/min/mg as +++)”. Also, the IC50 in data set [2] is below 0.1 nM.

With `CN1[C@@H]2CC[C@H]1CN(c1ccc(NC(=O)c3c[nH]c(-c4c(-c5ccc(F)cc5)ncn4CC(F)(F)F)n3)cc1)C2` [Compound 193, 5′-(4-fluorophenyl)-N-(4-((1R,5S)-8-methyl-3,8-diazabicyclo[3.2.1]octan-3-yl)phenyl)-3′-(2,2,2-trifluoroethyl)-1H,3′H-[2,4′-biimidazole]-4-carboxamide], the IC50 on TNIK(h) (setting [3]) is 12 to 120 nM; against MAP4K4 (h), 12 to 120 nM; in data set [2], below 0.1 nM.

With `CN1CCN(c2ccc(NC(=O)c3c[nH]c(-c4c(-c5ccc(F)cc5)ncn4CC(F)(F)F)n3)cc2)CC1=O` [Compound 194, 5′-(4-fluorophenyl)-N-(4-(4-methyl-3-oxopiperazin-1-yl)phenyl)-3′-(2,2,2-trifluoroethyl)-1H,3′H-[2,4′-biimidazole]-4-carboxamide], the IC50 at TNIK(h) (setting [3]) is 12 to 120 nM; at MAP4K4 (h) it was above 120 nM; in data set [2] it was 0.1 to 1 nM.

With `CC1CN(c2ccc(NC(=O)c3c[nH]c(-c4c(-c5ccc(F)cc5)ncn4C(C)C)n3)cc2)CC(C)N1C` (stereo not drawn) [Compound 196, 5′-(4-fluorophenyl)-3′-isopropyl-N-(4-(3,4,5-trimethylpiperazin-1-yl)phenyl)-1H,3′H-[2,4′-biimidazole]-4-carboxamide], the figures for the IC50 (at TNIK(h) (setting [3]); against MAP4K4 (h); in data set [2]) were 12 to 120 nM, 12 to 120 nM and below 0.1 nM, respectively.
